Measured values taken from patent US9861616B2, “Methods for treating respiratory diseases and formulations therefor” (priority 2013, dated 2018).
In brackets after ≈: the same amount, converted by molar mass. Like-named read-outs stand apart in the source and are kept apart here.

Tests used:
[1] = system: P. aeruginosa PAO1; test: MIC by microdilution with PaβN or EGTA, wild-type strain; format: cell-based; settings: Pseudomonas aeruginosa
Description: (§1) MICs of 36 clinical and laboratory strains of PA with known efflux phenotype are measured by microdilution in cation-adjusted Muller-Hinton broth (CA-MHB) or in RPMI medium (commonly used in eukaryotic cell culture). Phe-Arg-β-naphthylamide (PaβN, 50 mg/L) and EGTA 5 mM are used to inhibit efflux pumps and alter OM integrity, respectively. P. aeruginosa strain ATCC PAO1 is used as reference. PA12 is a clinical strain overexpressing the 4 main efflux systems (MexAB, MexCD, MexEF, MexXY), PA403 is a laboratory strain deleted in the genes coding for the 4 efflux systems. A series of reference strains or of clinical isolates for which the expression of genes coding for efflux pumps is known is also used for MICs determinations. MICs are measured by microdilution in MH broth or in RPMI medium (used for eukaryotic cells culture) supplemented with 10% of fetal calf serum, or in MH broth supplemented by increasing amounts of serum. EGTA (5 mM) was used as a chelating agent (disrupting outer membrane integrity) and PaβN (50 mg/L) as an unspecific efflux inhibitor.

[2] = system: P. aeruginosa PA12; test: MIC by microdilution with PaβN or EGTA, clinical isolate overexpressing efflux pumps; format: cell-based; settings: Pseudomonas aeruginosa
Description: as §1

[3] = system: P. aeruginosa PA403; test: MIC by microdilution with PaβN or EGTA, efflux-deleted laboratory strain; format: cell-based; settings: Pseudomonas aeruginosa, read-out: MIC
Description: as §1, with “The compounds described herein are poor substrates of efflux pumps expressed in P. aeruginosa (PA). MICs of” for “MICs of”

[4] = system: TNFα release; test: LPS-induced TNFα release in PMA-differentiated U937 cells (ELISA); format: cell-based, human
Description: Effects of macrolides on lipopolysaccharide (LPS)-induced TNFα release in PMA-differentiated U937 cells. […] LPS-induced TNFα release was evaluated by ELISA. Values represent means of three experiments±SEM. ^##p<0.01 (vs. non-treatment control), *p<0.05, **p<0.01 (vs. treatment with LPS only).
(§2) The human monocytic cell line U937 was obtained from the American Type Culture Collection (ATCC, Rockville, Md.). PBMCs from COPD patients were obtained from Brompton hospital and separated by AccuSPIN (Sigma-Aldrich). Cells were cultured in complete growth medium (RPMI 1640) (Sigma-Aldrich) supplemented with 10% fetal bovine serum (FBS) and 1% L-glutamine at 37° C. in a humidified atmosphere with 5% CO2. U937 cells were differentiated into adherent macrophage-like morphology by exposure to PMA (50 ng/mL) for 48 hrs in complete growth medium. Cell viability was assessed microscopically by trypan blue staining. Cell toxicity was determined by MTT assay as needed. This study was approved by the ethics committee of the Royal Brompton Hospitals, and all subjects gave written informed consent.
(§3) TNFα and IL-8 concentrations in the supernatant of cell cultures were determined by sandwich ELISA according to the manufacturer's instructions (R&D Systems Europe, Abingdon, UK).
(§4) The results were expressed as the mean±SEM. Comparisons of data in two groups were performed using the Student's t test or the Wilcoxon signed rank test. Multiple comparisons were made by one-way ANOVA with post hoc test (Dunnett's) as appropriate. The difference was considered significant at p<0.05. IC50 values (50% inhibitory concentration) for macrolides for production of cytokines or MMP9 were calculated using Prism 4.0 (GraphPad Software Inc., San Diego, Calif.).

[5] = system: IL-8 (CXCL8) release; test: LPS-induced IL-8 (CXCL8) release in PMA-differentiated U937 cells (ELISA); format: cell-based, human
Description: Effects of macrolides on lipopolysaccharide (LPS)-induced CXCL8 release in PMA-differentiated U937 cells. […] LPS-induced CXCL8 release was evaluated by ELISA. Values represent means of three experiments±SEM. ^##p<0.01 (vs. non-treatment control), *p<0.05, **p<0.01 (vs. treatment with LPS only).
as §2, §3, §4

[6] = PAO1, PAO1, CA-MHB, PaβN 50 mg/L, read-out: MIC
[7] = PAO1, PAO1, CA-MHB, control conditions (CT)
[8] = PAO1, PAO1, RPMI, EGTA 5 mM, read-out: MIC
[9] = PAO1, PAO1, RPMI, PaβN 50 mg/L, read-out: MIC
[10] = PAO1, PAO1, RPMI, control conditions (CT), read-out: MIC
[11] = PA12, PA12, CA-MHB, PaβN 50 mg/L
[12] = PA12, PA12, CA-MHB, control conditions (CT)
[13] = PA12, PA12, RPMI, control conditions (CT)
[14] = PA403, P403, CA-MHB, control conditions (CT)
[15] = PA403, P403, RPMI, PaβN 50 mg/L
[16] = PA403, P403, RPMI, control conditions (CT)
[17] = at a higher concentration (333 μM)

| Structure (SMILES) | MIC [1, 6] | MIC [1, 7] | MIC [1, 8] | MIC [1, 9] | MIC [1, 10] | MIC [2, 11] | MIC [2, 12] | MIC ([2]; PA12, PA12, RPMI, EGTA 5 mM) | MIC ([2]; PA12, PA12, RPMI, PaβN 50 mg/L) | MIC [2, 13] | MIC ([3]; PA403, P403, CA-MHB, EGTA 5 mM) | MIC [3, 14] | MIC ([3]; PA403, P403, RPMI, EGTA 5 mM) | MIC [3, 15] | MIC [3, 16] | MIC ([2]; PA12, PA12, CA-MHB, EGTA 5 mM) | further results |
| --- | --- | --- | --- | --- | --- | --- | --- | --- | --- | --- | --- | --- | --- | --- | --- | --- | --- |
| CC[C@H]1OC(=O)[C@H](C)[C@@H](O[C@H]2C[C@@](C)(OC)[C@@H](O)[C@H](C)O2)[C@H](C)[C@@H](O[C@@H]2O[C@H](C)C[C@H](N(C)C)[C@H]2O)[C@](C)(OC)C[C@@H](C)C(=O)[C@H](C)[C@@H](O)[C@]1(C)O [CLR, clarithromycin] | 8 µg/mL (≈ 10.7 µM) | 512 µg/mL (≈ 685 µM) | 32 µg/mL (≈ 42.8 µM) | 4 µg/mL (≈ 5.35 µM) | 32 µg/mL (≈ 42.8 µM) | 16 µg/mL (≈ 21.4 µM) | 512 µg/mL (≈ 685 µM) | 2 µg/mL (≈ 2.67 µM) | 16 µg/mL (≈ 21.4 µM) | 16 µg/mL (≈ 21.4 µM) | 32 µg/mL (≈ 42.8 µM) | 16 µg/mL (≈ 21.4 µM) | 0.5 µg/mL (≈ 0.668 µM) | 4 µg/mL (≈ 5.35 µM) | 4 µg/mL (≈ 5.35 µM) |  | IC50 ([4]; PMA-differentiated U937 cells, read-out: IC50, LPS-induced TNFα release): 426 µM; effect on TNFα production [4, 17]: modest effects; IC50 ([5]; PMA-differentiated U937 cells, read-out: IC50, LPS-induced IL-8 (CXCL8) release): 506 µM; effect on IL-8 production [5, 17]: modest effects |
| CC[C@H]1OC(=O)[C@H](C)[C@@H](O[C@H]2C[C@@](C)(OC)[C@@H](O)[C@H](C)O2)[C@H](C)[C@@H](O[C@@H]2O[C@H](C)C[C@H](N(C)C)[C@H]2O)[C@](C)(O)C[C@@H](C)C(=O)[C@H](C)[C@@H](O)[C@]1(C)O [ERY, erythromycin] | 16 µg/mL (≈ 21.8 µM) | 512 µg/mL (≈ 698 µM) | 32 µg/mL (≈ 43.6 µM) | 32 µg/mL (≈ 43.6 µM) | 32 µg/mL (≈ 43.6 µM) | 32 µg/mL (≈ 43.6 µM) | 512 µg/mL (≈ 698 µM) | 2 µg/mL (≈ 2.73 µM) | 32 µg/mL (≈ 43.6 µM) | 32 µg/mL (≈ 43.6 µM) | 16 µg/mL (≈ 21.8 µM) | 16 µg/mL (≈ 21.8 µM) | 0.5 µg/mL (≈ 0.681 µM) | 4 µg/mL (≈ 5.45 µM) | 4 µg/mL (≈ 5.45 µM) | 512 µg/mL (≈ 698 µM) | effect on TNFα production ([4]; 33 to 333 μM (FIG. 3)): did not inhibit; IC50 ([4]; Homo sapiens, U-937, U937 cells, at 333 μM, read-out: IC50, LPS-induced TNFα release: NE at 333 μM): > 333 µM; effect on IL-8 production ([5]; 33 to 333 μM (FIG. 4)): did not inhibit; IC50 ([5]; Homo sapiens, U-937, U937 cells, at 333 μM, read-out: IC50, LPS-induced IL-8 release: NE at 333 μM): > 333 µM |
| CC[C@H]1OC(=O)[C@H](C)C(=O)[C@H](C)[C@@H](O[C@@H]2O[C@H](C)C[C@H](N(C)C)[C@H]2O)[C@](C)(OC)C[C@@H](C)C(=O)[C@H](C)[C@H]2N(CCCCn3cnc(-c4cccnc4)c3)C(=O)O[C@]12C [TEL, telithromycin] | 4 µg/mL (≈ 4.93 µM) | 128 µg/mL (≈ 158 µM) | 1 µg/mL (≈ 1.23 µM) | 4 µg/mL (≈ 4.93 µM) | 2 µg/mL (≈ 2.46 µM) | 4 µg/mL (≈ 4.93 µM) | 128 µg/mL (≈ 158 µM) | 1 µg/mL (≈ 1.23 µM) | 4 µg/mL (≈ 4.93 µM) | 4 µg/mL (≈ 4.93 µM) | 2 µg/mL (≈ 2.46 µM) | 4 µg/mL (≈ 4.93 µM) | 0.06 µg/mL (≈ 0.0739 µM) | 1 µg/mL (≈ 1.23 µM) | 0.5 µg/mL (≈ 0.616 µM) | 32 µg/mL (≈ 39.4 µM) | MIC ([1]; PAO1, PAO1, CA-MHB, EGTA 5 mM, read-out: MIC): 32 µg/mL (≈ 39.4 µM); IC50 ([4]; Homo sapiens, U-937, read-out: IC50, LPS-induced TNFα release: NE at 100 μM, U937 cells, at 100 μM): > 100 µM; effect on TNFα production ([4]; at 100 μM): did not inhibit; IC50 ([5]; Homo sapiens, U-937, read-out: IC50, LPS-induced IL-8 release: NE at 100 μM, U937 cells, at 100 μM): > 100 µM; effect on CXCL8 production ([5]; at 100 μM): did not inhibit |
